From patent US9610291B2, “Treatment of respiratory depression” (NUMEDICUS LIMITED, priority 2012, dated 2017)

How the values were obtained:
conscious rats = assay: Opiate-induced respiratory depression; whole-body plethysmography in conscious rats; format: in vivo; conditions: for increase in the respiratory activity: before morphine
Method: Whole-body plethysmography is used to assess respiratory rate (fR, in breaths per minute) and tidal volume (VT, in microliters per gram) in conscious rats. Animals are placed in a recording chamber (˜700 ml) flushed continuously with a humidified mixture of 79% nitrogen and 21% oxygen (temperature 22-24° C.). Level of carbon dioxide (CO2) in the chamber is monitored online using a fast-response CO2 analyser. Animals are allowed ˜40 min to acclimatize to the chamber environment at normoxia-normocapnia (21% oxygen, 79% nitrogen and <0.3% CO2) before measurements of baseline ventilation are taken.
Respiratory depression is induced in conscious rats by intramuscular (10 mg/kg) administration of morphine.
Data are acquired using Power1401 interface, saved and analyzed off-line using Spike2 software (CED Limited, Cambridge, UK).
Parameters measured included fR—respiratory rate (in breaths per minute); VT—tidal volume (in microliters per gram of body weight); VE—minute ventilation fR×VT (in microliters per gram of body weight per minute).
The data were analysed by ANOVA followed by the Tukey-Kramer's post hoc test, Student's t-test, or non-parametric Wilcoxon-Mann-Whitney U test, as appropriate. Data are presented as means±SEM.

[1] = test system: Methyl-CpG-binding protein 2 (Mecp) null mice; assay: Rett's syndrome model; plethysmography in Mecp2 null mice; format: in vivo; conditions: tianeptine 10 mg/kg i.p. in saline, 5.6 Hz before treatment, p=0.037, paired t test
Method: Methyl-CpG-binding protein 2 (Mecp) null mice were of the B6.129P2(C)-Mecp2^tm1.1Bird strain. Mice were produced and genotyped using published methods (Miralvès J, Magdeleine E, Joly E. Design of an improved set of oligonucleotide primers for genotyping MeCP2^tm1.1Bird KO mice by PCR. Mol Neurodegener. 2007; 2:16; Bissonnette J M, Knopp S J. Separate respiratory phenotypes in methyl-CpG-binding protein 2 (Mecp2) deficient mice. Pediatr Res. 2006; 59:513-518).
Breathing was recorded over a 60 min control period following drug treatment in the same way as for the respiratory depression experiments, with the same equipment and software. After the recording sessions, mice were euthanized with CO2.

## CN1c2ccccc2C(NCCCCCCC(=O)O)c2ccc(Cl)cc2S1(=O)=O (centres unmarked) [tianeptine, 7-[(3-chloro-6,11-dihydro-6-methyl-dibenzo[c,f][1,2]thiazepin-11-yl)amino]heptanoic acid S,S-dioxide]
Conscious rats; tianeptine 2 mg/kg ip, 5 min after administration, conscious rats, p<0.05
  increase in the respiratory activity: ~30%
Conscious rats; tianeptine 2 mg/kg ip, morphine 10 mg/kg intramuscular 5 minutes after tianeptine, conscious rats
  morphine-induced respiratory depression: appears to prevent morphine-induced respiratory depression
Conscious rats; tianeptine 10 mg/kg, rats
  increase in the respiratory activity: not observed
Conscious rats; tianeptine 10 mg/kg, followed by morphine 10 mg/kg intramuscular, rats
  morphine-induced respiratory depression: prevented
[1]
  peak dominant frequency (respiratory frequency pattern) after drug treatment: 4.8 Hz
